Columns and labels:
Test in all cases: relative viability (nuclei count vs DMSO), 5 days (fraction); higher = more cells survive
[1] = compound: CC1=C(C=C(C=C1)NC(=O)C2=CC(=CC=C2)C(C)(C)C#N)NC3=CC4=C(C=C3)N=CN(C4=O)C [AZ628] + CCNC(=O)c1noc(-c2cc(C(C)C)c(O)cc2O)c1-c1ccc(CN2CCOCC2)cc1 [Luminespib] (partner 0.01 µM)
Summary of the method: (§1)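 Relative viability divides the nuclei count in treated wells by that in vehicle wells. Lung cancer cell lines were seeded in 1536-well plates, dosed by pin tool the next day, and fixed and stained after 5 days in one step with final 0.05% Triton X-100, 1% formaldehyde and 1 ug/ml Hoechst. Dosing was a single drug or a fixed anchor-drug dose plus five library-drug doses (not always all listed) in √10 steps, and values are medians of duplicate plates imaged at 4×.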

[2] = compound: C1CC2=C(C1)C=C(C=C2)OC3=NC(=C4C(=N3)N(C=N4)CC5=CC=C(C=C5)C6=CC=CC=C6)N[C@@H](CC7=CC=CC=C7)CO [QS11] + CS(=O)(=O)CCNCc1ccc(-c2ccc3ncnc(Nc4ccc(OCc5cccc(F)c5)c(Cl)c4)c3c2)o1 [Lapatinib] (partner 2 µM)
Summary of the method: as §1

[3] = compound: CC1=C(C=C(C=C1)NC(=O)C2=CC(=CC=C2)C(C)(C)C#N)NC3=CC4=C(C=C3)N=CN(C4=O)C [AZ628] + CC(C)C[C@H](NC(=O)[C@H](Cc1ccccc1)NC(=O)c1cnccn1)B(O)O [Bortezomib] (partner 0.002 µM)
Summary of the method: as §1

[4] = compound: C1CC2=C(C1)C=C(C=C2)OC3=NC(=C4C(=N3)N(C=N4)CC5=CC=C(C=C5)C6=CC=CC=C6)N[C@@H](CC7=CC=CC=C7)CO [QS11] + COc1cc2c(Oc3ccc(NC(=O)C4(C(=O)Nc5ccc(F)cc5)CC4)cc3F)ccnc2cc1OCCCN1CCOCC1 [Foretinib] (partner 0.25 µM)
Summary of the method: as §1

Cell Line: LCLC-97TM1
- relative viability ([1]; first compound 0.08 µM): 0.804
- relative viability ([1]; first compound 0.253 µM): 0.659
- relative viability ([1]; first compound 0.8 µM): 0.642
- relative viability ([1]; first compound 2.53 µM): 0.464
- relative viability ([1]; first compound 8 µM): 0.287
- relative viability ([2]; first compound 0.08 µM): 0.484
- relative viability ([2]; first compound 0.253 µM): 1.12
- relative viability ([2]; first compound 0.8 µM): 0.96
- relative viability ([2]; first compound 2.53 µM): 1.24
- relative viability ([2]; first compound 8 µM): 0.673
- relative viability ([3]; first compound 0.08 µM): 0.643
- relative viability ([3]; first compound 0.253 µM): 0.381
- relative viability ([3]; first compound 0.8 µM): 0.199
- relative viability ([3]; first compound 2.53 µM): 0.522
- relative viability ([3]; first compound 8 µM): 0.108
- relative viability ([4]; first compound 0.08 µM): 0.957
- relative viability ([4]; first compound 0.253 µM): 0.949
- relative viability ([4]; first compound 2.53 µM): 0.934
- relative viability ([4]; first compound 8 µM): 0.931
